Measurements as given in ChEMBL document CHEMBL1201862, “PubChem BioAssay data set” (2004).
Active and inactive are the calls of the source.

Assays:
Streptococcus = assay: GAS UMAA2166 growth inhibition – luminescence, BacTiterGlo, counter-screen for streptokinase expression inhibitor project, dose response (AID 1915); type: functional, organism-based;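 further: potency for reduction of bacterial viability or growth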
Exodeoxyribonuclease V = molecular target: T1, Exodeoxyribonuclease V (Escherichia coli (strain K12), UniProt P04993+P07648+P08394); assay: RecBCD inhibition via phage-restricted bacterial growth – absorbance, V66 E. coli, mutant T4 phage, counter-screen for AddAB inhibitor project, dose response (AID 492957); type: functional, cell-based, Escherichia coli str. K-12 substr. MG1655
T1 sequence (P04993 whole entry): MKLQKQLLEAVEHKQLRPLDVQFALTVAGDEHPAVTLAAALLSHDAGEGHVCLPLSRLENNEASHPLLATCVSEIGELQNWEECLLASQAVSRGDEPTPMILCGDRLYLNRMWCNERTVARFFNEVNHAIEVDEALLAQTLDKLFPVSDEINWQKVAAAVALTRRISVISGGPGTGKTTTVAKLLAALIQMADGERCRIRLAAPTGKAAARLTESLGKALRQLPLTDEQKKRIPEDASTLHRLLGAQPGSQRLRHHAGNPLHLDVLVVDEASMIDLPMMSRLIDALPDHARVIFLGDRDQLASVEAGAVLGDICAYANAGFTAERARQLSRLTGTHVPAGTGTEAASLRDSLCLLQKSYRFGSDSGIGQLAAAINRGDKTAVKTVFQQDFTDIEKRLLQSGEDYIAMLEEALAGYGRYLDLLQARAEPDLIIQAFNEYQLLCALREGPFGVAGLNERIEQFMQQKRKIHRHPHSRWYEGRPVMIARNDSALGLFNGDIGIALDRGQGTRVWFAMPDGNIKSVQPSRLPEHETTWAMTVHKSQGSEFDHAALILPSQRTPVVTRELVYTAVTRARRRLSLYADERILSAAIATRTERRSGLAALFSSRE
T1 sequence (P07648 whole entry): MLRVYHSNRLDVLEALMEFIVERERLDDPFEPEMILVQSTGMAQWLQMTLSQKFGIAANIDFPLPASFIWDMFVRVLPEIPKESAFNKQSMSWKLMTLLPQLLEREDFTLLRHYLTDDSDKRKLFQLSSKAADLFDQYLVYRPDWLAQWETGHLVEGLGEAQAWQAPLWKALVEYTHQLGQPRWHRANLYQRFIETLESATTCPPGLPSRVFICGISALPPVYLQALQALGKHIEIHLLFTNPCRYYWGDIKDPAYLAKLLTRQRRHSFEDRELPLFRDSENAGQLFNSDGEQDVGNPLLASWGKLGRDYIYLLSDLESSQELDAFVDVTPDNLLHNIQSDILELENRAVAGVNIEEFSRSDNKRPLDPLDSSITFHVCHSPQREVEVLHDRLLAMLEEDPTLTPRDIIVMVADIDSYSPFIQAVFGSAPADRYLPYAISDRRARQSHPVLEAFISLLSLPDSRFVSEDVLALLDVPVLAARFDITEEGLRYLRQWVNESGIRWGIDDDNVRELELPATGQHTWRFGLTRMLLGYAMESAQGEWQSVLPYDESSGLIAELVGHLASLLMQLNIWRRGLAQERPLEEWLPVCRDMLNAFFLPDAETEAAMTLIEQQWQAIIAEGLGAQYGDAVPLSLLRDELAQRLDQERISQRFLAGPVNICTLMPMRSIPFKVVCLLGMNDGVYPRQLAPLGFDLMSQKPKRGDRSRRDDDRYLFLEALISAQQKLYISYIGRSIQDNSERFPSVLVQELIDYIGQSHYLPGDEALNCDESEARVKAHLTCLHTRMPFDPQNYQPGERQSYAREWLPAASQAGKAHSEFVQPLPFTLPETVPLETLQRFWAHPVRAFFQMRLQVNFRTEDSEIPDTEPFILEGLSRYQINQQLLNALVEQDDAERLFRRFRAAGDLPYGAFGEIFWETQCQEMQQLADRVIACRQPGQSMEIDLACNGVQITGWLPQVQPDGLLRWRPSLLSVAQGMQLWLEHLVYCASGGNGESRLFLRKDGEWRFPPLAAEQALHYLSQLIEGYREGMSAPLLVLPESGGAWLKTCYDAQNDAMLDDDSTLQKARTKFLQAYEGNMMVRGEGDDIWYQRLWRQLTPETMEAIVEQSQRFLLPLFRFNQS
T1 sequence (P08394 whole entry): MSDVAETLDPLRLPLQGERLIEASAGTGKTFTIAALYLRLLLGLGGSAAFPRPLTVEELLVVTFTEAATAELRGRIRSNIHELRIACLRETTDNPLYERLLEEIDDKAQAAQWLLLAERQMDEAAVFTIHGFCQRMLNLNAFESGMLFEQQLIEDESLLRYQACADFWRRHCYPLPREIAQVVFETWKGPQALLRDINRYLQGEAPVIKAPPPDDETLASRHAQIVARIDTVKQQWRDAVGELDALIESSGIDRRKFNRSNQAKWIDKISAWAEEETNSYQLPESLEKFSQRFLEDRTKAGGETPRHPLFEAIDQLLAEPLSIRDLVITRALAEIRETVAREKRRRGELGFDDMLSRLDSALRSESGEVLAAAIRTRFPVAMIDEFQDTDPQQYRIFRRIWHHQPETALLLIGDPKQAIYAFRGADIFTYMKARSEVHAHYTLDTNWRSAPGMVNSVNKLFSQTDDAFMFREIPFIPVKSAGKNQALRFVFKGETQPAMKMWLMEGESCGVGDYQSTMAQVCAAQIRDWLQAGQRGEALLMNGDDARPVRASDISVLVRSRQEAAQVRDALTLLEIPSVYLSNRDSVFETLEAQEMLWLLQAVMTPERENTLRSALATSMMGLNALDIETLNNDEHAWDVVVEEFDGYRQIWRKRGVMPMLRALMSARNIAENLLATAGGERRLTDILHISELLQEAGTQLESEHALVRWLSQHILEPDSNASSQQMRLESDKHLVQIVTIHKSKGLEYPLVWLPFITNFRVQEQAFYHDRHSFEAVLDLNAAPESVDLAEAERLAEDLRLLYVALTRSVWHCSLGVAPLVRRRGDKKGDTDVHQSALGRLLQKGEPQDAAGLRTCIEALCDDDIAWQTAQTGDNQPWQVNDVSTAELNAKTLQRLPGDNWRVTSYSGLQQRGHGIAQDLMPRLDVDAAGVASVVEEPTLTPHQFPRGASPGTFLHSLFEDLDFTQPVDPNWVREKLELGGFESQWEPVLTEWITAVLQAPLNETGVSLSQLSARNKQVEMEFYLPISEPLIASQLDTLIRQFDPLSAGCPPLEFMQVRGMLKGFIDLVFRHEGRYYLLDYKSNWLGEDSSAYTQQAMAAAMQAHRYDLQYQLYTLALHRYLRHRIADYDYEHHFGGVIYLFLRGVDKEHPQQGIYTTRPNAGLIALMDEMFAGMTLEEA

Jurkat = assay: SAR Analysis of small molecule inhibitors of T-cell specific antigen receptor-induced NF-kB activation in a Jurkat cell line using a luminescence assay - Set 2. [Related pubchem assays (depositor defined):AID435003, AID435012, AID465]; type: functional, cell-based; details: Homo sapiens
[1] = reduction of Shn3 3'UTR-driven luciferase in osteoblasts – cell-based, Clone20 osteoblasts, firefly luciferase, cherry-picked, dose response (AID 624132); type: functional;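 further: firefly luciferase luminescence from reporter carrying the Shn3 3'UTR in osteoblasts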

| SMILES | EC50 (Streptococcus) | IC50 (Exodeoxyribonuclease V) | IC50 (Jurkat) | AC50 [1] |
| --- | --- | --- | --- | --- |
| CCOc1cccc(/C=N/NC(=S)Nc2ccccc2[N+](=O)[O-])c1O | 4.18 µM (active) | – | – | – |
| CCCCC(=O)NC(c1ccc(N(CC)CC)cc1)c1ccc2cccnc2c1O (centres undefined) | – | > 119 µM (inactive) | 3.12 µM (active) | 1.12 µM (active) |
